Here are results for 32 compounds from US7196083B2, “Heteropolycyclic inhibitors of protein kinases” (priority 2000, dated 2007).

Read-outs that look alike come from different tables or passages of the source.

The target in data set [1] is PKB, full-length recombinant bovine protein, alpha form (Bos taurus, UniProt Q01314). Description: PKB inhibition in vitro enzyme assay (radioactive phosphate incorporation, scintillation counting). Type of data set: biochemical. The conditions noted are these: for IC50: PKB in vitro enzyme assay, 15 min at room temperature.
The next data set has as its system M3 murine melanoma cells. Description: [3H] thymidine uptake cell proliferation assay, M3. In kind it is cell-based. The conditions noted are these: Mus musculus, read-out: Cell Proliferation Effects (IC50 (nM)).
For data set [2], the system named is A-549 (human lung carcinoma). Description: [3H] thymidine uptake cell proliferation assay, A549. Type of data set: cell-based. The following applies: A459 cells, read-out: Cell Proliferation in A459 IC50 in nm.
Data set [3] concerns B16-F10 (murine melanoma). Description: [3H] thymidine uptake cell proliferation assay, B16F10. In kind it is cell-based. The conditions noted are these: Mus musculus, read-out: Cell Proliferation Effects (IC50 (nM)).
For another data set, the system named is DU-145 (human carcinoma). Description: [3H] thymidine uptake cell proliferation assay, DU145. In kind it is cell-based. The following applies: read-out: Cell Proliferation Effects (IC50 (nM)).
Data set [4] concerns SKOV-3 (human ovarian carcinoma). Description: [3H] thymidine uptake cell proliferation assay, SKOV3. The following applies: SK-OV-3, read-out: Cell Proliferation Effects (IC50 (nM)). Type of data set: cell-based.
The subject of data set [5] is NIH-3T3 (murine embryonic fibroblasts). The data set can be described thus: [3H] thymidine uptake cell proliferation assay, NIH3T3. Type of data set: cell-based. The following applies: Mus musculus; NIH3T3, non-tumorigenic cell line; read-out: Cell Proliferation Effects (IC50 (nM)).
The test system of the next data set is B16-F1 (murine melanoma). The data set can be described thus: [3H] thymidine uptake cell proliferation assay, B16F1. In kind it is cell-based. The conditions noted are these: Mus musculus, read-out: Cell Proliferation Effects (IC50 (nM)).
Data set [6] concerns PC3 (human prostate carcinoma). The data set can be described thus: [3H] thymidine uptake cell proliferation assay, PC3. The conditions noted are these: PC-3, read-out: Cell Proliferation Effects (IC50 (nM)). In kind it is cell-based.
For the next data set, the system named is U-87 (human glioma). Description: [3H] thymidine uptake cell proliferation assay, U87. Type of data set: cell-based. The protocol:
Compounds were added to culture at mid-logarithmic growth and incubated for 20 hours. (N=8 for the values+standard errors). […] Cell lines A-549 (human lung carcinoma), B16-F1 (murine melanoma), B16-F10 (murine melanoma), DU-145 (human […] carcinoma), LS-180 (human colon carcinoma), PC3 (human prostate carcinoma), SKOV-3 (human ovarian carcinoma), U-87 (human glioma), and NIH-3T3 (murine embryonic fibroblasts) were all cultured in DMEM supplemented with 10% fetal bovine serum. M3 murine melanoma cells were cultured in DMEM/F12 1:1, and HT-29 human colon carcinoma and LL2 Lewis Lung […] lung carcinoma were cultured in RPMI1640. All the foregoing cell lines were obtained from ATCC. All cells were passaged regularly using 0.25% Trypsin-EDTA in order to maintain cells at exponential growth for various experiments. LS 180 cells were passaged without trypsin and were physically scraped off the culture flasks. In vitro [^3H] thymidine uptake assay. Proliferation can be measured by quantifying the amount of [^3H] thymidine uptake into cells using a β-counter, and therefore is a well-established diagnostic tool to measure DNA synthesis within the cells. […] The cells were allowed to adhere to the plates via incubation at 37° C. in 5% CO2 for 12–14 hours. […] Then, 10 μL of the compound was added to the pre-existing 90 μL per well, and incubated further at 37° C. in 5% CO2 for 20 hours. To measure thymidine incorporation, cells were fixed onto the culture wells by slowly adding ¼^th volume of cold 50% TCA into each well (25 μL to each well) and incubated for 1–2 hours at 4° C. Wells were washed 5 times with tap water to remove any free [^3H] thymidine in the media, and air-dried completely at room temperature. Then, 100 μL of scintillation fluid was added to each well and the activity counted using a Wallac Microbeta Counter.

Data set [7] relates to HT-29 human colon carcinoma. Description: [3H] thymidine uptake cell proliferation assay, HT29. Type of data set: cell-based. The conditions noted are these: read-out: Cell Proliferation Effects (IC50 (nM)).
For data set [8], the system named is LL2 Lewis Lung human lung carcinoma. Description: [3H] thymidine uptake cell proliferation assay, LL2. The following applies: LL/2, read-out: Cell Proliferation Effects (IC50 (nM)). Type of data set: cell-based.
For data set [9] the following is noted: for comparison; cited from earlier work.
[10] abbreviates: U87, read-out: Cell Proliferation IC50 in nm (starred: tested in U7 cells, not U87), read-out: Cell Proliferation IC50 in nm (starred: tested in U7 cells, not A459).

PKB, full-length recombinant bovine protein, alpha form, sequence (Q01314 whole entry): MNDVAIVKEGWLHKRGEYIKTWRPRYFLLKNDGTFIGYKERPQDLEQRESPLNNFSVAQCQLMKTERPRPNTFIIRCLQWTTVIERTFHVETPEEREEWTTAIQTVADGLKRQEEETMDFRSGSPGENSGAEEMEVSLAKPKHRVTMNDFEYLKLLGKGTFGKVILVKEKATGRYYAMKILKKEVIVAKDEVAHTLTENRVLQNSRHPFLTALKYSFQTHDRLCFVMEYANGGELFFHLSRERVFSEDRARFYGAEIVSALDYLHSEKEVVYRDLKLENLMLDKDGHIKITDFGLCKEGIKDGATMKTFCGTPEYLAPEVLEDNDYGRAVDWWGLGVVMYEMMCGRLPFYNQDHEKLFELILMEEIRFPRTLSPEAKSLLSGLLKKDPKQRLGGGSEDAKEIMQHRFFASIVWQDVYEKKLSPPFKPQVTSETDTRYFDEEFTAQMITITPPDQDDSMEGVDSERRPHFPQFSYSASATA

For the compound `O=C1c2ccccc2-c2nn3nnnc3nc21` [KP-17483], the “PKB inhibition in in vitro enzyme assay (in words)” value in [1] is reported as “found to inhibit PKB”. Also, the IC50 is 15 µM in data set [1]; 30 nM in the data set on M3 murine melanoma cells; greater than 10 µM in data set [2]; 750 nM in data set [3]; 50 nM in the data set on DU-145 (human carcinoma); 300 nM in data set [4]. Besides, the IC50 was found to be 200 nM in data set [5]; 80 nM in the data set on B16-F1 (murine melanoma); 250 nM in data set [6]; 50 nM in the data set with U-87 (human glioma) (U-87 MG, U87, read-out: Cell Proliferation Effects (IC50 (nM))); 500 nM in data set [7]; 750 nM in [8].
On to `O=C1c2ccccc2-c2nc3c(O)cccc3nc21` [KP-23172-001], for which the IC50 in [1] is greater than 100 µM; in data set [2], greater than 10 µM.
`O=C(O)c1ccc2nc3c(nc2c1)-c1ccccc1C3=O` [KP-23172-002]: the IC50 in [1] was greater than 100 µM; in [2], greater than 10 µM.
For `O=C(c1ccccc1)c1ccc2nc3c(nc2c1)-c1ccccc1C3=O` [KP-23172-003], in that order: greater than 100 µM and greater than 10 µM.
Regarding `O=C1c2ccccc2-c2nc3c(O)nc(O)nc3nc21` [KP-23172-004], the IC50 in [1] is greater than 100 µM; in [2], greater than 10 µM.
For `Cn1c(=O)c2nc3c(nc2n(C)c1=O)C(=O)c1ccccc1-3` [KP-23172-005], in that order: greater than 100 µM and greater than 10 µM.
The matching figures for `O=C1c2ccccc2-c2nc3cc(Cl)c(Cl)cc3nc21` [KP-23172-006]: greater than 100 µM and greater than 10 µM.
For `Cc1cc2nc3c(nc2cc1C)-c1ccccc1C3=O` [KP-23172-007], in that order: greater than 100 µM and greater than 10 µM.
As to `c1ccc2c(c1)Cc1nn3nnnc3nc1-2` [KP-23172-008], the values for the IC50 in data set [1] and in data set [2] were greater than 100 µM and greater than 10 µM, respectively.
As for `O=C1c2ccccc2-c2nc3c(O)ncnc3nc21` [KP-23172-009], the IC50 is greater than 100 µM in data set [1] and greater than 10 µM in data set [2].
As for `Oc1ncnc2nc3c(nc12)CCc1ccccc1-3` [KP-23172-010], the IC50 in [1] was greater than 100 µM.
Still for that read-out and setting: to `c1ccc2c(c1)CCc1nc3nnnn3nc1-2` [KP-23172-011] belongs greater than 100 µM; to `Oc1cccc2nc3c(nc12)CCc1ccccc1-3` [KP-23172-012], greater than 100 µM.
Still for that read-out and setting: then `Cc1cc2nc3c(nc2cc1C)-c1ccccc1CC3` [KP-23172-013], with greater than 100 µM.
Regarding `O=C1c2ccccc2-c2nc3c(nc21)CCCC3` [KP-23172-015], the IC50 in data set [1] was greater than 100 µM; in data set [2] it was greater than 10 µM.
As for `O=C1c2ccccc2-c2nccnc21` [KP-23172-016], the IC50 in [1] was greater than 100 µM.
On the same count and under the same terms, to `Cc1cc2nc3c(nc2cc1C)-c1ccccc1/C3=N\Nc1ccccc1` [KP-23172-017] belongs greater than 100 µM.
Consider `c1ccc2c(c1)[nH]c1nn3nnnc3nc12` [KP-23172-018], for which the IC50 was greater than 100 µM in data set [1] and greater than 10000 nM with U-87 (human glioma) (setting [10]).
`N#Cc1nc2c(nc1C#N)-c1ccccc1C2=O` [KP-23172-019]: the results for the IC50 (in [1]; in the data set with U-87 (human glioma) (setting [10])) were greater than 100 µM and greater than 10000 nM, respectively.
`O=C1c2cc3ccccc3cc2-c2nc3nnnn3nc21` [KP-23172-020]: the IC50 in [1] was greater than 100 µM; in [2], 0.1 µM.
For `O=C(O)c1nc2c(nc1C(=O)O)-c1ccccc1C2=O` [KP-23172-021], in that order: greater than 100 µM and greater than 10 µM.
As to `O=c1c2ccccc2c2nc3c(=S)nc(S)c3nc12` [KP-23172-022], the IC50 in data set [1] was greater than 100 µM; in the data set with U-87 (human glioma) (setting [10]), 5000 nM.
`N/N=C1/c2ccccc2-c2nc3nnnn3nc21` [KP-23172-023]: the IC50 is greater than 100 µM in data set [1] and 0.5 µM in [2].
On to `c1ccc(N/N=C2/c3ccccc3-c3nc4nnnn4nc32)cc1` [KP-23172-024], for which the IC50 in [1] was greater than 100 µM; in [2] it was greater than 10 µM.
Turning to `c1ccc(N/N=C2\C(=N/Nc3ccccc3)Nc3ccccc32)cc1` [KP-23172-025], the IC50 in data set [1] is greater than 100 µM.
The same measure, in the same setting: to `O=C1c2ccccc2-c2nc3cc4ccccc4cc3nc21` [KP-23172-026] belongs greater than 100 µM.
As for `N#CC(=O)N/N=C1/c2ccccc2-c2nc3nnnn3nc21` [KP-23172-027], the results for the IC50 in [1] and in data set [2] were greater than 100 µM and 0.5 µM, respectively.
For `Cc1ccc2nc3c(nc2c1)-c1ccccc1C3=O` [KP-23172-028], in that order: greater than 100 µM and greater than 10 µM.
As for `Cc1ccc2nc3c(nc2c1)C(=O)c1ccccc1-3` [KP-23172-029], the figures for the IC50 in data set [1] and in data set [2] were greater than 100 µM and greater than 10 µM, respectively.
For `COc1ccc2c(c1)-c1nc3nnnn3nc1C2=O` [KP-23172-030], in that order: 20 µM and 0.046 µM.
Consider `O=C1c2ccccc2-c2nc3c4ccccc4c4ccccc4c3nc21` [KP-23172-31], for which, in data set [1], the IC50 is greater than 100 µM.
For the compound `Clc1ccc(COC(Cn2ccnc2)c2ccc(Cl)cc2Cl)c(Cl)c1` (centres unmarked) [miconazole], the “1:1 binding constant (reported in the literature)” value in data set [9] is reported as 363.
